# Experimental data published in patent publication US20120045505A1, “FIXED DOSE DRUG COMBINATION FORMULATIONS” (Dr. Reddy's Laboratories, Inc., priority 2004, published 2012).
# Experiments:
# [1] = Storage stability of capsules in closed HDPE bottles at 40° C. and 75% relative humidity for 6 months: drug content and drug-related impurities; format: physicochemical
# Experimental: Capsules prepared above are stored in closed high-density polyethylene (HDPE) bottles at 40° C. and 75% relative humidity for 6 months, and are analyzed for drug content and the levels of drug-related impurity formation.
# Capsules prepared above are stored in closed HDPE bottles at 40° C. and 75% relative humidity for 6 months, and are analyzed for drug content and the levels of drug-related impurities.
# [2] = In vitro dissolution of capsules, USP Type 1 (Basket) apparatus, 900 mL medium, 100 rpm; format: physicochemical
# Experimental: Dissolution profiles for drugs in capsules prepared above are determined in various media using the USP procedure and the following conditions: Type 1 (Basket) apparatus; 900 mL medium; and 100 rpm rotation. Values in the following tables are cumulative percentages of the specified drug that dissolves in the specified times. […]
# [3] = Example 3 capsule, 6 Months at 40° C. and 75% relative humidity, closed HDPE bottles
# [4] = Example 3 capsule, 0.1N HCl, 30 Minutes
# [5] = Example 3 capsule, 0.1N HCl, 60 Minutes
# [6] = Example 3 capsule, pH 2.1 SGF, 30 Minutes
# [7] = Example 3 capsule, pH 2.1 SGF, 60 Minutes
# [8] = Example 3 capsule, pH 4.5 Acetate buffer USP, 30 Minutes
# [9] = Example 3 capsule, pH 4.5 Acetate buffer USP, 60 Minutes
# [10] = Example 4 capsule, 0.1N HCl, 30 Minutes
# [11] = Example 4 capsule, 0.1N HCl, 60 Minutes
# [12] = Example 4 capsule, pH 2.1 SGF, 30 Minutes
# [13] = Example 4 capsule, pH 2.1 SGF, 60 Minutes
# [14] = Example 4 capsule, pH 4.5 Acetate buffer USP, 30 Minutes
# [15] = Example 4 capsule, pH 4.5 Acetate buffer USP, 60 Minutes
# [16] = Example 3 capsule, 6 Months, 40° C./75% RH
# [17] = Example 4 capsule, 6 Months at 40° C. and 75% relative humidity, closed HDPE bottles
# [18] = Example 4 capsule, 6 Months, 40° C./75% RH, capsule containing hydrochlorothiazide
# [19] = Example 4 capsule, Initial, capsule containing hydrochlorothiazide
# [20] = Example 4 capsule, pH 6.8 Phosphate buffer USP, 30 Minutes
# [21] = Example 4 capsule, pH 6.8 Phosphate buffer USP, 60 Minutes
# [22] = Example 4 capsule, 6 Months, 40° C./75% RH
"Assay (drug content) [1, 3]","Assay (drug content) ([1]; Example 3 capsule, Initial)","cumulative percentage of drug dissolved [2, 4]","cumulative percentage of drug dissolved [2, 5]","cumulative percentage of drug dissolved [2, 6]","cumulative percentage of drug dissolved [2, 7]","cumulative percentage of drug dissolved [2, 8]","cumulative percentage of drug dissolved [2, 9]","cumulative percentage of drug dissolved [2, 10]","cumulative percentage of drug dissolved [2, 11]","cumulative percentage of drug dissolved [2, 12]","cumulative percentage of drug dissolved [2, 13]","cumulative percentage of drug dissolved [2, 14]","cumulative percentage of drug dissolved [2, 15]","Assay (drug content) [1, 17]","Assay (drug content) ([1]; Example 4 capsule, Initial)",SMILES,"cumulative percentage of drug dissolved [2, 20]","cumulative percentage of drug dissolved [2, 21]",also measured
98.7 % of label content,100.3 % of label content,–,–,–,–,–,–,–,–,–,–,–,–,–,–,CC(C)NCC(O)COc1ccc(CC(N)=O)cc1 (stereo not drawn) [Atenolol],–,–,–
101.5 % of label content,100.3 % of label content,96%,98%,99%,100%,88%,89%,96%,98%,99%,100%,88%,89%,101.3 % of label content,101.2 % of label content,CC(=O)Oc1ccccc1C(=O)O [Aspirin],–,–,"cumulative percentage of drug dissolved ([2]; Example 3 capsule, 0.01N HCl, 30 Minutes): 87%; cumulative percentage of drug dissolved ([2]; Example 3 capsule, 0.01N HCl, 60 Minutes): 89%; cumulative percentage of drug dissolved ([2]; Example 4 capsule, 0.01N HCl, 30 Minutes): 87%; cumulative percentage of drug dissolved ([2]; Example 4 capsule, 0.01N HCl, 60 Minutes): 89%; Impurity: Salicylic acid [1, 16]: 0.68 % of label content; Impurity: Salicylic acid ([1]; Example 3 capsule, Initial): 0.17 % of label content; Impurity: Salicylic acid [1, 18]: 0.31 % of label content; Impurity: Salicylic acid [1, 19]: 0.13 % of label content"
98.7 % of label content,98.5 % of label content,97%,96%,102%,105%,97%,96%,100%,100%,95%,98%,100%,102%,99.0 % of label content,97.8 % of label content,NCCCC[C@H](N[C@@H](CCc1ccccc1)C(=O)O)C(=O)N1CCC[C@H]1C(=O)O [Lisinopril],94%,95%,"cumulative percentage of drug dissolved ([2]; Example 3 capsule, pH 6.5 SIF, 30 Minutes): 92%; cumulative percentage of drug dissolved ([2]; Example 3 capsule, pH 6.5 SIF, 60 Minutes): 97%; cumulative percentage of drug dissolved ([2]; Example 3 capsule, pH 6.8 Phosphate buffer USP, 30 Minutes): 96%; cumulative percentage of drug dissolved ([2]; Example 3 capsule, pH 6.8 Phosphate buffer USP, 60 Minutes): 96%; Impurity: RSS isomer [1, 16]: 0.12 % of label content; Impurity: SSS DKP [1, 16]: 0.009 % of label content; Impurity: RSS isomer ([1]; Example 3 capsule, Initial): 0.09 % of label content; Impurity: RSS isomer [1, 18]: 0.09 % of label content; Impurity: SSS DKP [1, 18]: 0.33 % of label content; Impurity: RSS isomer [1, 19]: 0.09 % of label content; Impurity: SSS DKP [1, 19]: 0.05 % of label content"

SMILES,"Assay (drug content) [1, 3]","Assay (drug content) ([1]; Example 3 capsule, Initial)","cumulative percentage of drug dissolved [2, 4]","cumulative percentage of drug dissolved [2, 5]","cumulative percentage of drug dissolved [2, 6]","cumulative percentage of drug dissolved [2, 7]","cumulative percentage of drug dissolved [2, 8]","cumulative percentage of drug dissolved [2, 9]","cumulative percentage of drug dissolved [2, 10]","cumulative percentage of drug dissolved [2, 11]","cumulative percentage of drug dissolved [2, 12]","cumulative percentage of drug dissolved [2, 13]","cumulative percentage of drug dissolved [2, 14]","cumulative percentage of drug dissolved [2, 15]","Assay (drug content) [1, 17]","Assay (drug content) ([1]; Example 4 capsule, Initial)","cumulative percentage of drug dissolved [2, 20]","cumulative percentage of drug dissolved [2, 21]",also measured
NS(=O)(=O)c1cc2c(cc1Cl)NCNS2(=O)=O [Hydrochlorothiazide],–,–,–,–,–,–,–,–,100%,100%,88%,98%,91%,97%,99.3 % of label content,99.5 % of label content,82%,85%,"Impurity: CTZ [1, 22]: 0.04 % of label content; Impurity: DSA [1, 22]: 0.07 % of label content; Impurity: CTZ ([1]; Example 4 capsule, Initial): 0.04 % of label content; Impurity: DSA ([1]; Example 4 capsule, Initial): 0.04 % of label content"
